{"source": "patent US7291451B2", "about": "“Modulation of pericyte proliferation” (XOMA Technology Ltd., priority 2000, dated 2007)", "molecules": {"B1": {"name": "rBPI21: recombinant N-terminal BPI analog, amino acids 1 to approximately 193 or 199, cysteine 132 substituted with alanine (protein, UniProt P17213 32-224, looked up, variant C132A)", "chain": "VNPGVVVRISQKGLDYASQQGTAALQKELKRIKIPDYSDSFKIKHLGKGHYSFYSMDIREFQLPSSQISMVPNVGLKFSISNANIKISGKWKAQKRFLKMSGNFDLSIEGMSISADLKLGSNPTSGKPTITASSCSSHINSVHVHISKSKVGWLIQLFHKKIESALRNKMNSQVCEKVTNSVSSELQPYFQTL"}}, "key": {"[1]": {"system": "human retinal pericytes (HRPC)", "assay": "Human retinal pericyte proliferation assay (Methylene blue, OD650)", "format": "cell-based", "details": "for toxicity on HRPC: initial assay; for HRPC proliferation: initial experiment, treated once, medium not changed", "method": "In addition to studies with primary cell cultures of bovine retinal pericytes described above, experiments were performed with a human cell line obtained from Clonetics (San Diego, Calif.) of retinal pericytes (catalog no. CC-2542 PyCRt). These human retinal pericytes (HRPC) were cultured in Dulbecco's modified Eagle's medium (DMEM, Gibco BRL, Grand Island, N.Y.) with 5.6 mM glucose and 20% fetal bovine serum (FBS, Gibco BRL, Grand Island, N.Y.).\nProliferation assays were performed as follows: HRPC were plated onto 24-well culture plates (3000 cells/well) in 5 or 10% FBS-DMEM with 5.6 mM glucose and incubated overnight. The cells were treated once with vehicle alone or with vehicle and several concentrations of XMP.627 ([SEQ ID NO: 4]), XMP.664 ([SEQ ID NO: 5]), XMP.679 ([SEQ ID NO: 3]), or XMP.728 ([SEQ ID NO: 6]) for 5 or 6 days. The medium was not changed, nor were additional amounts of test compounds added as described in the experiments of part A above. The cells were fixed and stained with Methylene blue and proliferation assayed by observation at OD650."}, "[2]": {"system": "bovine retinal endothelial cells (BREC)", "assay": "Cell growth assay (DNA content) in bovine retinal endothelial cells", "format": "cell-based", "method": "Primary cultures of bovine retinal endothelial cells (BREC) were isolated by homogenization and a series of filtration steps as described in King et al., J. Clin. Invest., 1985, 75:1028-36. BREC were subsequently cultured with endothelial cell basal medium (EBM; Clonetics, San Diego, Calif.). supplemented with 10% plasma-derived horse serum (PDHS), 50 mg/l heparin, and 50 μg/ml endothelial cell growth factor (ECGF, Roche, Indianapolis, Ind.). Cells were characterized for homogeneity by their immunoreactivity with anti-factor VIII antibody. Cells remained morphologically unchanged under these conditions, as confirmed by light microscopy. Only cells from passages 2 through 7 were used for the experiments.\n(§1) A cell growth assay was performed as follows: Cells were plated onto 12-well culture plates and incubated overnight. The cells were treated with vehicle, vascular endothelial growth factor (VEGF, R & D Systems, Minneapolis, Minn.) at 25 ng/ml, serum, compounds, or combinations thereof. The medium is changed during the incubation period, with fresh medium and fresh test compound added every 2 days. After incubation for indicated time period at 37° C., the cells were lysed in 0.1% SDS and DNA content was measured by means of Hoechst-33258 dye and a fluorometer (model TKO-100, Hoefer Scientific Instruments, San Francisco, Calif.). It has been shown that total cellular DNA content measured in this manner correlates closely with actual cell number as determined by hemocytometer counting of trypsinized cells.\n(§2) Determinations were performed in triplicate and all experiments were repeated at least three times. Results are expressed as the mean ±standard deviation, unless otherwise indicated. Statistical analysis employed Student's t-test or analysis of variance to compare quantitative data populations with normal distributions and equal variance. Data were analyzed using the Mann-Whitney rank sum test or the Kruskal-Wallis test for populations with non-normal distributions or unequal variance. A P-value of <0.05 was considered statistically significant."}, "[3]": {"system": "bovine retinal pericytes (BRPC)", "assay": "Cell growth assay (DNA content, cell number) in bovine retinal pericytes", "format": "cell-based", "method": "as §1, §2\nPrimary cultures of bovine retinal pericytes (BRPC) were isolated by homogenization and a series of filtration steps as described in King et al., J. Clin. Invest., 1985, 75:1028-36. BRPC were cultured in Dulbecco's modified Eagle's medium (DMEM, Gibco BRL, Grand Island, N.Y.) with 5.5 mM glucose and 20% fetal bovine serum (FBS, Gibco BRL, Grand Island, N.Y.). Cells were characterized for homogeneity by their immunoreactivity with monoclonal antibody 3G5 [Nayak et al., J. Exp. Med. 1988, 167:1003-15]. Cells remained morphologically unchanged under these conditions, as confirmed by light microscopy. Only cells from passages 2 through 7 were used for the experiments.\nA cell growth assay was performed as described above in Example 1 and the medium was changed, with fresh medium and fresh test compound added every 2 or 3 days, preferably every 2 days. […] At 20% FBS a six to seven fold increase of total DNA was detected."}, "[4]": {"system": "MAP kinase phosphorylation", "assay": "MAP kinase phosphorylation in BRPC", "format": "cell-based, bovine", "details": "75 μg/ml", "method": "Experiments were also performed in which the level of MAP kinase phosphorylation was determined in BRPC treated with 75 μg/ml rBPI21 or 5 μg/ml XMP.679. […] These observations indicate that exemplary BPI protein products rBPI21 and, to a lesser extent, XMP.679, enhance MAP kinase phosphorylation in BRPC."}, "[5]": {"system": "Bovine retinal pigment epithelial cells (RPEC)", "assay": "Cell growth assay in bovine retinal pigment epithelial cells", "format": "cell-based", "details": "75 μg/ml", "method": "as §1\nBovine retinal pigment epithelial cells (RPEC) were isolated by gentle scraping after removal of the neural retina and incubation with 0.2% collagenase as described in King et al., Diabetes, 1987, 36:1460-7. RPEC were cultured in DMEM with 5.5 mM glucose and 10% calf serum (CS, Gibco BRL, Grand Island, N.Y.). Cells were cultured in 5% CO2 at 37° C., and media were changed every other days. Cells were characterized for their homogeneity by immunoreactivity with anti-cytokeratin antibody for RPEC. […]"}}, "note": "Where “and” joins values, the source holds several entries; their conditions need not be identical. Equal entries are not always repeated. Entries after “also recorded” stand apart in the source; their conditions may differ.", "data": [{"molecule": "XMP.664: BPI-derived peptide, SEQ ID NO: 5 (KLFRAQAK; XMP.664; listed as Homo sapiens)", "values": [{"measurement": "effect on HRPC growth", "setting": "[1]; 10 μg/ml and higher, 5% FBS", "value": "slight growth inhibitory effect"}, {"measurement": "effect on HRPC proliferation", "setting": "[1]; 10 μg/ml, 10% FBS", "value": "increased HRPC proliferation"}, {"measurement": "concentration of maximum HRPC proliferation", "setting": "[1]; 5% FBS", "value": "approximately 5 μg/ml"}, {"measurement": "effect on HRPC proliferation", "setting": "[1]; above 10 μg/ml, 10% FBS", "value": "inhibited proliferation"}, {"measurement": "effect on HRPC proliferation", "setting": "[1]; approximately 0.5, 1, 5 μg/ml, 5% FBS", "value": "increased HRPC proliferation in a dose responsive manner"}]}, {"molecule": "XMP.365: BPI protein product, SEQ ID NO: 11 (KWLIQLFHKK; XMP.365; listed as Homo sapiens)", "values": [{"measurement": "toxicity on HRPC", "setting": "[1]", "value": "some toxicities"}]}, {"molecule": "XMP.629: BPI protein product, SEQ ID NO: 12 (KLFRAQAKA; XMP.629; listed as Homo sapiens)", "values": [{"measurement": "HRPC proliferation", "setting": "[1]", "value": "enhanced the proliferation of HRPC"}]}, {"molecule": "XMP.676: BPI protein product, SEQ ID NO: 13 (KAVIQVVAKK; XMP.676; listed as Homo sapiens)", "values": [{"measurement": "HRPC proliferation", "setting": "[1]", "value": "enhanced the proliferation of HRPC"}]}, {"molecule": "XMP.711: BPI protein product, SEQ ID NO: 7 (KLARK; XMP.711; listed as Homo sapiens)", "values": [{"measurement": "HRPC proliferation", "setting": "[1]", "value": "little or no proliferation"}]}, {"molecule": "XMP.768: BPI protein product, SEQ ID NO: 14 (KLFRAQAK; XMP.768; listed as Homo sapiens)", "values": [{"measurement": "HRPC proliferation", "setting": "[1]", "value": "enhanced the proliferation of HRPC"}]}, {"molecule": "XMP.718: BPI protein product, SEQ ID NO: 10 (KLFRKA; XMP.718; listed as Homo sapiens)", "values": [{"measurement": "toxicity on HRPC", "setting": "[1]", "value": "some toxicities"}]}, {"molecule": "XMP.852: BPI protein product, SEQ ID NO: 8 (KLFRAQ; XMP.852; listed as Homo sapiens)", "values": [{"measurement": "HRPC proliferation", "setting": "[1]", "value": "little or no proliferation"}]}, {"molecule": "VEGF [reference compound]", "values": [{"measurement": "increase of DNA content", "setting": "[2]; VEGF alone at 25 ng/ml", "value": "3 to 5 fold and 3 to 4 fold"}]}, {"molecule": "XMP.851: BPI protein product, SEQ ID NO: 15 (KLFRAQA; XMP.851; listed as Homo sapiens)", "values": [{"measurement": "HRPC proliferation", "setting": "[1]", "value": "enhanced the proliferation of HRPC"}]}, {"molecule": "XMP.861: BPI protein product, SEQ ID NO: 9 (KLFRA; XMP.861; listed as Homo sapiens)", "values": [{"measurement": "HRPC proliferation", "setting": "[1]", "value": "little or no proliferation"}]}, {"molecule": "XMP.627: BPI-derived peptide, SEQ ID NO: 4 (KLFRAQAKAKG; XMP.627; listed as Homo sapiens)", "values": [{"measurement": "concentration of maximum HRPC proliferation", "setting": "[1]; 5% FBS", "value": "approximately 5 μg/ml"}, {"measurement": "effect on HRPC proliferation", "setting": "[1]; 10% FBS", "value": "did increase HRPC proliferation"}, {"measurement": "effect on HRPC growth", "setting": "[1]; above 10 μg/ml, 5% FBS", "value": "slight growth inhibitory effect"}, {"measurement": "effect on HRPC proliferation", "setting": "[1]; approximately 0.5, 1, 5, 8 μg/ml, 5% FBS", "value": "increased HRPC proliferation in a dose responsive manner"}]}, {"molecule": "XMP.728: BPI-derived peptide, SEQ ID NO: 6 (KLFKAQAKAKG; XMP.728; listed as Homo sapiens)", "values": [{"measurement": "effect on HRPC proliferation", "setting": "[1]; 10% FBS", "value": "to lesser extent"}, {"measurement": "effect on HRPC proliferation", "setting": "[1]; only at approximately 5 μg/ml, 5% FBS", "value": "increased HRPC proliferation"}]}, {"molecule": "B1", "values": [{"measurement": "effect on DNA content", "setting": "[2]; 5 μg/ml compound, with and without VEGF", "value": "did not have a significant effect"}, {"measurement": "effect on DNA content (VEGF-dependent growth)", "setting": "[2]; VEGF 25 ng/ml plus 25 μg/ml compound", "value": "did not have a significant effect"}, {"measurement": "effect on DNA content (VEGF-dependent growth)", "setting": "[2]; VEGF 25 ng/ml plus 75 μg/ml compound", "value": "decreased significantly the DNA content; also recorded: prevented VEGF-dependent growth"}, {"measurement": "effect on total DNA content (growth)", "setting": "[2]; compound alone without VEGF, 25 or 75 μg/ml", "value": "did not have a significant effect"}, {"measurement": "stimulation of proliferation", "setting": "[3]; 75 μg/mL, 5, 10 or 15% FBS", "value": 3, "unit": "fold"}, {"measurement": "increase of DNA above basal level", "setting": "[3]; 75 μg/ml, 5% FBS", "value": 5, "unit": "fold"}, {"measurement": "maximum growth compared with 20% FBS", "setting": "[3]; 75 μg/ml, 5% FBS", "value": "almost equaled the growth effect of 20% FBS"}, {"measurement": "growth compared with 20% FBS", "setting": "[3]; 75 μg/ml, 15% FBS", "value": "increased the growth greater then 20% FBS"}, {"measurement": "effect on DNA content", "setting": "[3]; 5, 25, 75 μg/ml, 5% FBS", "value": "increased DNA content in a dose responsive manner"}, {"measurement": "total number of cells per well", "setting": "[3]; 5, 25, 75 μg/ml, 5% FBS", "value": "increased in a dose responsive manner"}, {"measurement": "effect on growth", "setting": "[3]; 5, 25 and 75 μg/ml, 10% FBS", "value": "induced the growth of pericyte"}, {"measurement": "growth compared with 20% FBS", "setting": "[3]; 25 and 75 μg/ml, 10% FBS", "value": "appeared to improve growth above that of 20% FBS"}, {"measurement": "time of maximum MAP kinase phosphorylation after addition", "setting": "[4]", "value": 15, "unit": "min"}, {"measurement": "effect on MAP kinase phosphorylation", "setting": "[4]; 1 to 60 minutes", "value": "increased MAP kinase phosphorylation over time"}, {"measurement": "maximum MAP kinase phosphorylation compared with 20% FBS", "setting": "[4]; 15 minutes", "value": "nearly equaled the effect of 20% FBS"}, {"measurement": "HRPC proliferation", "setting": "[1]", "value": "little or no proliferation"}, {"measurement": "effect on RPEC growth", "setting": "[5]", "value": "had no effect"}]}]}
